Starred links: 1 amine or outer side, 2 acyl side, 3 side chain; linkers in the order of their positions; H or OH if unused. Positions of bridges follow the written chain, without caps; N, C: chain ends. Non-standard residues stand in square brackets, D forms with d. Residues, ends and D or L forms follow the SMILES beside them. *: point of attachment. hPhe(3,5-F2-4-CF3) = N[C@@H](CCc1cc(F)c(C(F)(F)F)c(F)c1)C(=O)O; hPhe(3-Cl-4-CF3) = N[C@@H](CCc1ccc(C(F)(F)F)c(Cl)c1)C(=O)O; hPhe(3-F,4-CF3) = N[C@@H](CCc1ccc(C(F)(F)F)c(F)c1)C(=O)O; X48 = O=C([C@H](CCc1ccc(S(F)(F)(F)(F)F)cc1)N[*:1])[*:2]; NMePhe(4-CF3) = CN[C@@H](Cc1ccc(C(F)(F)F)cc1)C(=O)O; hPhe(4-CF3) = N[C@@H](CCc1ccc(C(F)(F)F)cc1)C(=O)O; Thiomorpholino(1,1-dioxo) = O=S1(=O)CCN(*)CC1; NMePhe(4-Cl) = CN[C@@H](Cc1ccc(Cl)cc1)C(=O)O; NMePhe(4-Me) = CN[C@@H](Cc1ccc(C)cc1)C(=O)O; NMePhe(4-F) = CN[C@@H](Cc1ccc(F)cc1)C(=O)O; X33 = Cc1ccc(CC[C@H](N[*:1])C(=O)[*:2])cc1; NMeGly(cPent) = CN[C@H](C(=O)O)C1CCCC1; Phe(3-I) = N[C@@H](Cc1cccc(I)c1)C(=O)O; NMeGly(cBu) = CN[C@H](C(=O)O)C1CCC1; NMeCha = CN[C@@H](CC1CCCCC1)C(=O)O; Nva(3-Et) = CCC(CC)[C@H](N)C(=O)O; NMeChg = CN[C@H](C(=O)O)C1CCCCC1; NMeF = CN[C@@H](Cc1ccccc1)C(=O)O; NMeI = CC[C@H](C)[C@H](NC)C(=O)O; NMeD = CN[C@@H](CC(=O)O)C(=O)O; CH2CONHtBu = CC(C)(C)NC(=O)C*; NMeL = CN[C@@H](CC(C)C)C(=O)O; NMeV = CN[C@H](C(=O)O)C(C)C; d(β3hA) = C[C@@H](N)CC(=O)O; NMeS = CN[C@@H](CO)C(=O)O; Ac6c = NC1(C(=O)O)CCCCC1; NMeA = CN[C@@H](C)C(=O)O; NMeAib = CNC(C)(C)C(=O)O; Piperidide = C1CCN(*)CC1; Pra = C#CC[C@H](N)C(=O)O; Pyrrolidide = C1CCN(*)C1; dNMeA = CN[C@H](C)C(=O)O; Ac5c = NC1(C(=O)O)CCCC1; Aze = O=C(O)[C@@H]1CCN1; Ac4c = NC1(C(=O)O)CCC1; Sar = CNCC(=O)O; Propyl = CCC*
Each molecule was assayed against T1, Kras and SOS1 (biotin-tagged human Kras loaded with GDP, His-tagged human SOS1) (Homo sapiens, UniProt P01116, G12D) (assay: Protein-protein interaction inhibition between Kras and SOS1 (KrasGl2D-SOS PPI) using AlphaScreen). Details: AlphaScreen; biotin-tagged human Kras loaded with GDP, His-tagged human SOS1; read-out: KRAS G12D-SOS PPI IC50.
T1 construct: made in house; host or cells: E. coli (stated for Kras only)
T1 sequence (P01116 1-188 isoform P01116-2 G12D): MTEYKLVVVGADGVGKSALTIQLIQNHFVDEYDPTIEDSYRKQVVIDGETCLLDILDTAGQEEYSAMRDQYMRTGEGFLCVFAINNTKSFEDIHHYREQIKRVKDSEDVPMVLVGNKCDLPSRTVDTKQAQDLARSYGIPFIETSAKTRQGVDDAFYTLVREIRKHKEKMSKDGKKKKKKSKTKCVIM
Assay type: binding
Method in brief: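 Donor beads (nickel) hold His-SOS1; acceptor beads (streptavidin) hold biotin-Kras bound to GDP. Signal measured at 520-620 nm following 680 nm excitation.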

Compound | IC50
CC[C@H](C)[C@@H]1NC(=O)[C@H](CC(C)C)N(C)C(=O)C[C@@H](C(=O)N2CCCC2)N(C)C(=O)[C@H](C2CCCCC2)N(C)C(=O)C2(CCC2)NC(=O)[C@@H]2CCCN2C(=O)[C@H](CCc2ccc(C(F)(F)F)c(Cl)c2)NC(=O)CN(C)C(=O)[C@H](CC2CCCCC2)N(C)C(=O)CN(C)C(=O)CN(C)C1=O [Compound 1894] ([NMeL]I[Sar][Sar][NMeCha][Sar][hPhe(3-Cl-4-CF3)]P[Ac4c][NMeChg][NMeD]-Pyrrolidide; lactam N-11) | 0.55 nM
CCCOC[C@H]1C(=O)N(C)CC(=O)N[C@@H](CCc2ccc(C(F)(F)F)c(F)c2)C(=O)N2CCC[C@H]2C(=O)NC2(CCCC2)C(=O)N(C)[C@@H](C2CCCC2)C(=O)N(C)[C@H](C(=O)N2CCCC2)CC(=O)N(C)[C@@H](CC(C)C)C(=O)N[C@@H]([C@@H](C)CC)C(=O)N(C)[C@@H](C)C(=O)N2CC[C@H]2C(=O)N1C [Compound 987] ([NMeL]I[NMeA][Aze][NMeS](Propyl)[Sar][hPhe(3-F,4-CF3)]P[Ac5c][NMeGly(cPent)][NMeD]-Pyrrolidide; lactam N-11) | 0.96 nM
C#CC[C@@H]1NC(=O)[C@H](Cc2cccc(I)c2)NC(=O)CN(C)C(=O)[C@H](Cc2ccc(C(F)(F)F)cc2)N(C)C(=O)[C@@H]2CCN2C(=O)CN(C)C(=O)[C@H]([C@@H](C)CC)NC(=O)[C@H](CC(C)C)N(C)C(=O)C[C@@H](C(=O)N2CCCCC2)N(C)C(=O)[C@H](CC(C)C)NC(=O)C(C)(C)N(C)C1=O [Compound 1425] ([NMeL]I[Sar][Aze][NMePhe(4-CF3)][Sar][Phe(3-I)][Pra][NMeAib]L[NMeD]-Piperidide; lactam N-11) | 19 nM
CC[C@H](C)[C@@H]1NC(=O)[C@H](CC(C)C)N(C)C(=O)C[C@@H](C)NC(=O)[C@H](CC(C)C)N(C)C(=O)C2(CCCCC2)NC(=O)[C@@H]2CCCN2C(=O)[C@H](CCc2ccc(C(F)(F)F)c(F)c2)NC(=O)CN(C)C(=O)[C@H](CC2CCCCC2)N(C)C(=O)CN(C)C(=O)CN(C)C1=O [Compound 231] (cyclo([Ac6c][NMeL][d(β3hA)][NMeL]I[Sar][Sar][NMeCha][Sar][hPhe(3-F,4-CF3)]P)) | 120 nM
CC[C@H](C)[C@@H]1NC(=O)[C@H](CC(C)C)N(C)C(=O)C[C@@H](C(=O)N2CCCCC2)N(C)C(=O)[C@H](C2CCCCC2)N(C)C(=O)C2(CCCC2)NC(=O)[C@@H]2CCCN2C(=O)[C@H](CCc2ccc(C(F)(F)F)c(Cl)c2)NC(=O)CN(C)C(=O)[C@H](C2CCC2)N(C)C(=O)CN(C)C(=O)CN(C)C1=O [Compound 936] ([NMeL]I[Sar][Sar][NMeGly(cBu)][Sar][hPhe(3-Cl-4-CF3)]P[Ac5c][NMeChg][NMeD]-Piperidide; lactam N-11) | 1.1 nM
CC[C@H](C)[C@@H]1NC(=O)[C@H](CC(C)C)N(C)C(=O)C[C@@H](C(=O)N2CCS(=O)(=O)CC2)NC(=O)[C@H]([C@@H](C)CC)N(C)C(=O)C2(CCCC2)NC(=O)[C@@H]2CCCN2C(=O)[C@H](CCc2ccc(C(F)(F)F)c(Cl)c2)NC(=O)CN(C)C(=O)[C@H](CC2CCCCC2)N(C)C(=O)CN(C)C(=O)CN(C)C1=O [Compound 1279] ([NMeL]I[Sar][Sar][NMeCha][Sar][hPhe(3-Cl-4-CF3)]P[Ac5c][NMeI]D-{Thiomorpholino(1,1-dioxo)}; lactam N-11) | 16 nM
CC[C@H](C)[C@@H]1NC(=O)[C@H](CC(C)C)N(C)C(=O)C[C@@H](C(=O)N2CCCCC2)N(C)C(=O)[C@H](CC(C)C)NC(=O)C(C)(C)N(C)C(=O)[C@H](Cc2ccccc2)NC(=O)[C@H](Cc2cccc(I)c2)NC(=O)CN(C)C(=O)[C@H](Cc2ccc(C)cc2)N(C)C(=O)[C@@H]2CCN2C(=O)[C@H](C)N(C)C1=O [Compound 1015] ([NMeL]I[NMeA][Aze][NMePhe(4-Me)][Sar][Phe(3-I)]F[NMeAib]L[NMeD]-Piperidide; lactam N-11) | 18 nM
CC[C@H](C)[C@@H]1NC(=O)[C@H](CC(C)C)N(C)C(=O)C[C@@H](C)NC(=O)[C@H](CC(C)C)N(C)C(=O)C2(CCCC2)NC(=O)[C@@H]2CCCN2C(=O)[C@H](CCc2ccc(S(F)(F)(F)(F)F)cc2)NC(=O)CN(C)C(=O)[C@H](CC2CCCCC2)N(C)C(=O)CN(C)C(=O)CN(C)C1=O [Compound 1021] (cyclo([Ac5c][NMeL][d(β3hA)][NMeL]I[Sar][Sar][NMeCha][Sar][X48]P)) | 240 nM
CC[C@H](C)[C@@H]1NC(=O)[C@H](C)N(C)C(=O)C[C@@H](C(=O)N2CCCC2)NC(=O)[C@H](CC(C)C)N(C)C(=O)[C@H](Cc2ccccc2)N(C)C(=O)[C@H](COCC(=O)NC(C)(C)C)NC(=O)[C@H](CCc2ccc(C(F)(F)F)cc2)NC(=O)CN(C)C(=O)[C@H](Cc2ccc(Cl)cc2)N(C)C(=O)CN(C)C(=O)CN(C)C1=O [Compound 233] ([NMeA]I[Sar][Sar][NMePhe(4-Cl)][Sar][hPhe(4-CF3)]S(CH2CONHtBu)[NMeF][NMeL]D-Pyrrolidide; lactam N-11) | 66 nM
CCC(CC)[C@@H]1NC(=O)[C@H](CC(C)C)N(C)C(=O)C[C@@H](C(=O)N(C)C)N(C)C(=O)[C@H]([C@@H](C)CC)N(C)C(=O)CNC(=O)[C@@H]2CCCN2C(=O)[C@H](CCc2ccc(C(F)(F)F)c(Cl)c2)NC(=O)CN(C)C(=O)[C@H](Cc2ccc(C)cc2)N(C)C(=O)[C@@H]2CCN2C(=O)[C@H](C)N(C)C1=O [Compound 193] ([NMeL][Nva(3-Et)][NMeA][Aze][NMePhe(4-Me)][Sar][hPhe(3-Cl-4-CF3)]PG[NMeI][NMeD]-NMe2; lactam N-11) | 420 nM
CC[C@H](C)[C@@H]1NC(=O)[C@H](CC(C)C)N(C)C(=O)C[C@@H](C(=O)N2CCCCC2)NC(=O)[C@H](C(C)C)N(C)C(=O)C2(CCCC2)NC(=O)[C@@H]2CCCN2C(=O)[C@H](CCc2ccc(C(F)(F)F)c(Cl)c2)NC(=O)CN(C)C(=O)[C@H](CC2CCCCC2)N(C)C(=O)CN(C)C(=O)CN(C)C1=O [Compound 417] ([NMeL]I[Sar][Sar][NMeCha][Sar][hPhe(3-Cl-4-CF3)]P[Ac5c][NMeV]D-Piperidide; lactam N-11) | 15 nM
CC[C@H](C)[C@@H]1NC(=O)[C@H](C)N(C)C(=O)C[C@@H](C(=O)N2CCCCC2)N(C)C(=O)[C@H](C(C)C)N(C)C(=O)C2(CCCC2)NC(=O)[C@@H]2CCCN2C(=O)[C@H](CCc2ccc(C(F)(F)F)c(Cl)c2)NC(=O)[C@@H](C)N(C)C(=O)[C@H](Cc2ccc(F)cc2)N(C)C(=O)CN(C)C(=O)CN(C)C1=O [Compound 1755] ([NMeA]I[Sar][Sar][NMePhe(4-F)][dNMeA][hPhe(3-Cl-4-CF3)]P[Ac5c][NMeV][NMeD]-Piperidide; lactam N-11) | 7.9 nM
CC[C@H](C)[C@@H]1NC(=O)[C@H](C)N(C)C(=O)C[C@@H](C(=O)N(C)C)N(C)C(=O)[C@H]([C@@H](C)CC)N(C)C(=O)C2(CCCC2)NC(=O)[C@H](Cc2ccc(F)cc2)N(C)C(=O)[C@H](CCc2cc(F)c(C(F)(F)F)c(F)c2)NC(=O)CN(C)C(=O)[C@H](Cc2ccc(C)cc2)N(C)C(=O)[C@@H]2CCN2C(=O)[C@H](C)N(C)C1=O [Compound 1914] ([NMeA]I[NMeA][Aze][NMePhe(4-Me)][Sar][hPhe(3,5-F2-4-CF3)][NMePhe(4-F)][Ac5c][NMeI][NMeD]-NMe2; lactam N-11) | 7.7 nM
CC[C@H](C)[C@@H]1NC(=O)[C@H](C)N(C)C(=O)C[C@@H](C(=O)N2CCCC2)NC(=O)[C@H](CC(C)C)N(C)C(=O)[C@H](Cc2ccccc2)N(C)C(=O)[C@H](CC(C)C)NC(=O)[C@H](CCc2ccc(C)cc2)NC(=O)CN(C)C(=O)[C@H](Cc2ccc(Cl)cc2)N(C)C(=O)CN(C)C(=O)CN(C)C1=O [Compound 398] ([NMeA]I[Sar][Sar][NMePhe(4-Cl)][Sar][X33]L[NMeF][NMeL]D-Pyrrolidide; lactam N-11) | 120 nM

From patent US12371454B2, “Cyclic peptide compound having Kras inhibitory action” (priority 2019, dated 2025)
